The values below come from PMC11023938 (Nature, 2024).

Experiment [1] concerns bone marrow-isolated neutrophils. Kind of experiment: Neutrophil cell death. It counts as cell-based, mouse. Particulars: TSP-1 1, 10 or 100 nM, in the presence of inflammatory cytokines; dose-dependent.
Experiment [2] concerns bone marrow-derived macrophages. Kind of experiment: Macrophage efferocytosis of neutrophils. It counts as cell-based, mouse. Particulars: macrophage treatment with TSP-1 1, 10 or 100 nM.
Procedure: An efferocytosis assay kit (Cayman, 601770) was used following the manufacturer’s instructions. Neutrophils were labelled with CFSE and cultured in RPMI with 2% serum for 12 h to induce cell death. Bone marrow-derived macrophages cultured for 7 days were seeded at a density of 4 × 10^5 cells per well in a 6-well plate with DMEM/F12 containing 10% FBS and 100 units ml^−1 penicillin/streptomycin. Prior to the assay, macrophages were pre-treated with CGRP (1 or 20 nM) for 24 h. Macrophages were collected, labelled with CytoTell Blue, and then incubated with CFSE-labelled dead/dying neutrophils at different ratios (1:1, 1:2, and 1:4) at 37 °C for 15 min. The reaction was stopped by washing cells with ice-cold PBS containing 5% FBS and 1 mM EDTA. Cells were analysed with BD LSR Fortessa X-20 and FlowJo software (BD Biosciences). Macrophages were identified by CytoTell Blue-positive staining, and the efferocytosis index was calculated as the percentage of CFSE-positive cells in CytoTell Blue-labelled macrophages.
For the efferocytosis assay, cells were cultured with 1 nM CGRP immediately after transfection. After 24 h, cells were collected and co-cultured with dead or dying neutrophils.
Experiment [3] concerns Nav1.8^cre/Rosa26^DTA mice. As to the kind of experiment: Flow cytometry of injured skin and muscle, nociceptor-ablated mice. The settings on record: TSP-1 total 10 μg. It is filed as in vivo, mouse. On the procedure:
Skin wounds were collected using an 8-mm biopsy punch, and muscle defects were dissected to isolate the quadriceps. Samples were minced with scissors and subjected to two serial digestions with collagenase XI (1 mg ml^−1) at 37 °C (two times 20 min for skin, two times 15 min for muscle). After the first digestion, the supernatant was collected and mixed with neutralization buffer (DMEM/F12 with 10% FBS and 5 mM EDTA). The first collection was kept on ice and fresh collagenase XI was added to the undigested tissue for the second digestion. Digestion mixtures were passed through a 70-μm cell strainer and stained with LIVE/DEAD Fixable Aqua dye (Thermo Fisher Scientific, 1:400 dilution in PBS) for 20 min on ice. Cells were incubated with TruStain FcX anti-CD16/32 (10 μg ml^−1; clone 93, BioLegend) diluted in staining buffer (5% FBS and 2 mM EDTA in PBS) for 20 min and subsequently incubated with primary antibodies in staining buffer for a further 30 min on ice. The following anti-mouse antibodies from BioLegend were used: FITC anti-CD11b (clone M1/70, 6.6 μg ml^−1) or BV711 anti-CD11b (clone M1/70, 2 μg ml^−1); PE anti-F4/80 (clone BM8, 4 μg ml^−1); BV421 anti-Ly6G (clone 1A8, 2 μg ml^−1); BV711 anti-Ly6C (clone HK1.4, 1 μg ml^−1) or FITC anti-Ly6C (clone HK1.4, 5 μg ml^−1); PE-Cyanine7 anti-CD206 (clone C068C2, 2.6 μg ml^−1); APC anti-CD206 (clone C068C2, 2 μg ml^−^1); PE-Cyanine7 anti-CD3 (clone 17A2, 4 μg ml^−1); BV711 anti-CD3 (clone 17A2, 4 μg ml^−1);APC anti-CD4 (clone GK1.5, 2 μg ml^−1); BV421 anti-CD8 (clone 53-6.7, 2 μg ml^−1); PE anti-TCR β (clone H57-597, 2 μg ml^−1); APC/Fire 750 anti-TCR γ/δ (clone GL3, 2 μg ml^−1); PE-Cyanine anti-CD11c (clone N418, 2 μg ml^−1); APC/Fire 750 anti-MHC Class II (clone M5/114.15.2, 2 μg ml^−1). Cells were washed once with a large volume of staining buffer before analysis with BD LSR Fortessa X-20 and FlowJo software (BD Biosciences).
On the technique in general: A flow cytometer gives signals particle by particle.

Experiment [4] deals with bone marrow-derived macrophages. As to the kind of experiment: Macrophage cell death. It is filed as cell-based, mouse. The settings on record: TSP-1 1, 10 or 100 nM, in the presence of inflammatory cytokines; dose-dependent.
Procedure: Bone marrow cells from 8- to 12-week-old C57BL/6 J mice were flushed, filtered and cultured in conditioned medium (DMEM/F12 with 10% heat-inactivated FBS, 100 units ml^−1 penicillin/streptomycin, and 20% L929 fibroblasts-conditioned medium) at 37 °C with 5% CO2. After 7–9 days, differentiated macrophages were collected and seeded in 12-well or 6-well plates. The next day, cells were treated with CGRP (1 or 20 nM, Tocris Bioscience, 83651-90-5) for 20 min before exposure to mouse IL-1 (5 ng ml^−1) and TNF (50 ng ml^−1), IL-4 (2 ng ml^−1) and IL-13 (2 ng ml^−1), or IL-10 (2 ng ml^−1) (PeproTech Inc) for 24 or 72 h. Macrophages were detached with TrypLE (Gibco) containing 3 mM EDTA, stained with LIVE/DEAD Aqua dye for 20 min on ice, and incubated with blocking solution (10 μg ml^−1 TruStain FcX anti-CD16/32 (clone 93, BioLegend)) for 20 min before staining with antibodies for 30 min on ice. Antibodies from BioLegend included PE anti-CD11b (clone M1/70, 1 μg ml^−1), BV711 anti-F4/80 (clone BM8, 2 μg ml^−1), APC anti-CD80 (clone 16-10A1, 0.5 μg ml^−1) and PE-Cyanine7 anti-CD206 (clone C068C2, 1 μg ml^−1). […] After washing with Perm buffer and staining buffer, cells were analysed using BD LSR Fortessa X-20 and FlowJo software (BD Biosciences). […]
The test system is the same in experiment [5]. As to the kind of experiment: Macrophage transwell migration. It is filed as cell-based, mouse. Particulars: TSP-1 1, 10 or 100 nM.
Procedure: Assays were conducted using 6.5-mm-diameter culture plate inserts (Corning) with 5-μm and 3-μm pore sizes for macrophages and neutrophils, respectively. Macrophages (1 × 10^5) or neutrophils (3 × 10^5) in migration media (DMEM/F12 with 0.25% BSA) were added to the inserts. The lower chambers contained migration buffer alone or chemoattractant (mouse CCL2 10 ng ml^−1 for macrophages or mouse CXCL1/KC 150 ng ml^−1 for neutrophils, PeproTech) with or without CGRP. Cells were allowed to migrate through the insert membrane for 3-4 h at 37 °C with 5% CO2. For macrophages, the inserts were then fixed with 4% paraformaldehyde, and cells on the upper side were removed. DAPI (1 μg ml^−1) was used to stain cells on the bottom side, and they were counted using a fluorescent microscope. […] The data are presented as the fold change, calculated by dividing the number of cells that migrated in response to treatments by the number of cells that migrated spontaneously (migration media only).
After 24 h, cells were collected for the migration assay.
The test system of experiment [6] is bone marrow-derived neutrophils. As to the kind of experiment: Neutrophil transwell migration. It is filed as cell-based, mouse. The settings on record: TSP-1 1, 10 or 100 nM.
Procedure: Bone marrow cells were flushed from femora and tibiae of C57BL/6 J mice (8- to 12-week-old) with HBSS without Ca^2+ and Mg^2+ containing 2% FBS and 1 mM EDTA. Cell suspension was passed through a 70-μm strainer. Next, EasySep Mouse Neutrophil Enrichment Kit or EasySep Mouse Monocyte Isolation Kit ([sequence] Technologies) was used to isolate neutrophils or monocytes according to the manufacturer’s instructions. Neutrophils were resuspended in RPMI containing 100 units ml^−1 penicillin/streptomycin and 10% FBS for cell migration assay and cell death assay or 2% FBS for efferocytosis.
Assays were conducted using 6.5-mm-diameter culture plate inserts (Corning) with 5-μm and 3-μm pore sizes for macrophages and neutrophils, respectively. Macrophages (1 × 10^5) or neutrophils (3 × 10^5) in migration media (DMEM/F12 with 0.25% BSA) were added to the inserts. The lower chambers contained migration buffer alone or chemoattractant (mouse CCL2 10 ng ml^−1 for macrophages or mouse CXCL1/KC 150 ng ml^−1 for neutrophils, PeproTech) with or without CGRP. […] For neutrophils, cells that migrated into the lower chamber were collected and counted using a haemocytometer. The data are presented as the fold change, calculated by dividing the number of cells that migrated in response to treatments by the number of cells that migrated spontaneously (migration media only).
Where [7] appears, read: skin wound borders D1 and D3 or muscle defect via fibrin hydrogel, day 3 post-injury.

With thrombospondin-1 [TSP-1], in experiment [1], the neutrophil death result was “accelerated death”. In addition, the “efferocytosis of neutrophils by macrophages” value in experiment [2] is “greatly enhanced”. Moreover, the “CD206 expression in injured tissue” value in experiment [3] (skin and muscle injuries, day 14 post-injury) is “increase”. In experiment [3] (setting [7]), the “number of inflammatory monocytes/macrophages (Ly6C^hi) in injured tissue” value is on record as “reduced numbers”, the “number of monocytes/macrophages in injured tissue” value is “reduced numbers” and the “number of neutrophils in injured tissue” value is given as “reduced numbers”. For the same substance, the macrophage death result in experiment [4] is recorded as “accelerated death”. Further, the “macrophage migration towards CCL2” value in experiment [5] is given as “inhibition of migration”. Besides, in experiment [6], the “neutrophil migration towards CXCL1” value is reported as “inhibition of migration”.
